Measured values reported in patent US20250311722A1, “IMPROVED BIOCIDE” (Purgos ApS, priority 2022, published 2025).
Values joined by “and” are separate entries in the source; they are usually repeats but may differ in a detail not shown here. Identical values can stand only once. Like-named read-outs stand apart in the source and are kept apart here.

Experiments:
rat [1] = details: cited from earlier work
[2] = system: Coriolus versicolor. CTB 863 A; experiment: EN 113 test against wood destroying basidiomycetes; type: cell-based; details: for Corrected mass loss, Mean / Mass loss, Mean: mean of blocks; for Corrected mass loss / Mass loss: single blocks
Procedure: EN 113, 2020: Durability of wood and wood-based products-Test method against wood destroying basidiomycetes. Assessment of biocidal efficacy of wood preservatives. […] The impregnation process was carried out on 24-03-2021 with the following conditions: Pre-vacuum at 0.1 bar for 30 minutes. Pressure of 13 bars for 60 minutes. Beech (Fagus sylvatica L.) for white rot fungi (Coriolus versicolor) with an average density 725 kg/m3. 4 weeks according to EN 113 at 65% RH and 20° C. until stable mass was obtained. Ionising radiation (2× 25 kGy).

[3] = 10% N-BDA in water; cited from earlier work
[4] = system: selected typical species of contaminants; experiment: Substitution of conventional biocides with NBDA in products, LuminUltra test against controls; type: cell-based
Description: A test sample (T): In a known recipe for a product comprising one or more conventional biocide(s), said biocide(s) is replaced with NBDA (or another tert, amine according to the present invention).
A control sample (C): Product comprising one or more conventional biocide(s) produced following an established recipe.
A negative control sample (N): A further negative control may be provided by removing said conventional biocide(s) from the recipe, without addition of NBDA (or other biocides). Provision and test of the N-sample can be optional.
Samples, such as test-, control- and/or negative control samples are provided according to Example 3. To assess the effect of the biocide(s), microbial contamination is measured, such as according to Example 6, or other conventional methods known in the art.
In short, samples are exposed to microbial contamination (microbial stress test) e.g. by opening a lid and closing it for a defined period of time, or other operations, mimicking a conventional user situation. Alternatively, samples can be inoculated with defined quantities of microorganisms, such as one or more indicator microorganism.
The samples can be divided into different aliquots, and incubated for selected periods at one or more relevant temperatures, such as e.g. one or more of 4° C., room temperature (RT, usually 20° C., 22° C., or 25° C.), 30° C., 32° C., 37° C., 40° C., and/or 60° C.), simulating e.g. appropriate storage, processing and usage conditions.
ATP, such as intracellular ATP is measured using a commercially available system, such as provided by LumiUltra®, in particular a method using luminase (Aqua Tools, see details below).
In short, a buffering solution and Luminase enzyme are mixed. After daily ATP standard calibration, an aliquot, such as 1 ml of sample is transferred to an 1 ml extraction tube. After dilution in UltraLute resin, the total ATP (content can be established in the luminescence measuring device. 2) 1 ml sample is dissolved in LumiSolve stabilizing agent. […] For further details, see e.g. Aqua Tools (78300 Poissy, France) Quick reference guide QuenchGone21™ Speciality Test Kit QG21S-50/QG21St-100 2G.

Poliovirus = type: cell-based
rat [5] = experiment: LD50 (rat, oral); type: in vivo; details: extrapolated from rat LD50 4250 mg/kg
Coniophora puteana = experiment: Wood impregnation with 10 and 20% NBDA, 6 weeks of exposure; type: cell-based; details: for Corrected mass loss, Mean / Mass loss, Mean / Corrected mass loss / Mass loss: 6 weeks of exposure; for Corrected mass loss, Mean / Mass loss, Mean: mean of blocks; for Corrected mass loss / Mass loss: single blocks
Description: Below table presents results from impregnation with 10 and 20% NBDA to water phase. It is expected that concentrations of up to at least 35% NBDA and/or APDEA and/or 2,2′-(octylimino)bisethanol are showing promising results.

For `CCCCN(CCO)CCO` [NBDA, N-butyldiethanolamine], the “LD50 (rat, oral)” value (rat [1]) is given as 4250 mg/kg, the “Toxic value, Retention of product” value ([2]; Beech) is given as over 15.40 kg/m^3 and the “Toxic value, Solution conc.” value ([2]; Beech) is given as over 2.20 % w/w. The “Corrected mass loss, Mean” value ([2]; solution conc. 0.55 % w/w) was 26.8%, the “Mass loss, Mean” value ([2]; solution conc. 0.55 % w/w) was 26.8% and the Corrected mass loss ([2]; solution conc. 0.55 % w/w) was 32.3% and 27.5% and 25.6% and 21.8%. The Mass loss ([2]; solution conc. 0.55 % w/w) was 32.3% and 27.5% and 25.6% and 21.8%, the “Corrected mass loss, Mean” value ([2]; solution conc. 0.78 % w/w) was 31.8% and the “Mass loss, Mean” value ([2]; solution conc. 0.78 % w/w) was 31.7%. The Corrected mass loss ([2]; solution conc. 0.78 % w/w) was 26.0% and 25.1% and 31.3% and 44.7%, the Mass loss ([2]; solution conc. 0.78 % w/w) was 25.9% and 25.0% and 31.2% and 44.6% and the “Corrected mass loss, Mean” value ([2]; solution conc. 1.09 % w/w) was 31.2%. The “Mass loss, Mean” value ([2]; solution conc. 1.09 % w/w) was 30.9%, the Corrected mass loss ([2]; solution conc. 1.09 % w/w) was 30.5% and 29.8% and 29.4% and 34.9% and the Mass loss ([2]; solution conc. 1.09 % w/w) was 30.2% and 29.5% and 29.2% and 34.6%. The “Corrected mass loss, Mean” value ([2]; solution conc. 1.55 % w/w) was 28.3%, the “Mass loss, Mean” value ([2]; solution conc. 1.55 % w/w) was 27.4% and the Corrected mass loss ([2]; solution conc. 1.55 % w/w) was 28.6% and 26.8% and 27.3% and 30.3%. The Mass loss ([2]; solution conc. 1.55 % w/w) was 27.8% and 25.9% and 26.4% and 29.5%, the “Corrected mass loss, Mean” value ([2]; solution conc. 2.20 % w/w) was 25.7% and the “Mass loss, Mean” value ([2]; solution conc. 2.20 % w/w) was 24.1%. For the same compound, the pH [3] was “around 11.1”, the biocidal protection ([4]; SBR precoat composition for carpets, MIT/BIT substituted with 0.5% NBDA) was “same performance as the origin” and the biocidal effect ([4]; Styrene-Butadiene-Rubber (SBR)-emulsion, MIT and/or BIT replaced, 32° C.) was “comparable and better than the normal biocide package”. The biocidal effect ([4]; algae removing compound, benzalkonium chloride replaced with 1-5%, 32° C.) was “comparable or even surpassing benzalkonium chloride in function”, the biocidal effect ([4]; circulating heat-transfer systems, benzalkonium chloride replaced with 1-5%, 32° C.) was “comparable to benzalkonium chloride” and the biocidal effect ([4]; combination dispersions, emulsions, suspensions, 32° C.) was “comparable and better than the normal biocide package”. The biocidal effect ([4]; disinfection compound for pipes, benzalkonium chloride replaced with 1-5%, 32° C.) was “comparable to benzalkonium chloride”, the preservation effect ([4]; food, preservatives substituted with comparable amounts of NBDA) was “suitable preservation effect(s) as the beforementioned preservative(s)” and the biocidal effect ([4]; hand cleanser, sodiumbenzoate, MIT and BIT replaced, 32° C.) was “comparable or even better than the normal biocide package”. For the same compound, the biocidal effect ([4]; liquid dishwashing compound, MIT/BIT replaced with 0.01-1%, 32° C.) was “comparable to or even surpassing the conventional biocide”, the biocidal effect ([4]; liquid disinfection compound, benzalkonium chloride replaced with 1-5%, 32° C.) was “comparable or even surpassing benzalkonium chloride in function” and the biocidal effect ([4]; moisturizing crème, benzoate and commercial biocides replaced, 32° C.) was “comparable or even better than the normal biocide package”. The biocidal effect ([4]; soap, sodiumbenzoate, MIT and BIT replaced, 32° C.) was “comparable or even better than the normal biocide package”, the biocidal effect ([4]; stabilized suspension, MIT and BIT replaced, 32° C.) was “comparable and better than the normal biocide package” and the biocidal effect ([4]; swimming pool water, chlorine compounds replaced, 32° C.) was “comparable or even better than chlorine based traditional solutions”. For the same compound, the biocidal effect ([4]; toothpaste, benzoate (e.g. 0.5%) replaced with similar concentration) was “comparable or even better than benzoate”, the biocidal effect ([4]; veterinary disinfection compound, benzalkonium chloride and/or glutaraldehyde replaced with 1-5%, 32° C.) was “comparable or even surpassing both benzalkonium chloride and glutaraldehyde in function” and the biocidal effect ([4]; waterborne cooling compound, benzalkonium chloride replaced with 1-5%, 32° C.) was “comparable or surpassing benzalkonium chloride”. The biocidal effect ([4]; watersystems for toilets, washing facilities, benzalkonium chloride replaced with 1-5%, 32° C.) was “comparable to benzalkonium chloride”, the “Mean log reduction after 60 seconds” value (Poliovirus; 1.0% NBDA) was 0.26 and the “Mean log reduction after 60 seconds” value (Poliovirus; 5.0% NBDA) was 0.17. The “human consummation equivalent to LD50” value (rat [5]) was 319 gram pr 75 kg, the “wood protection at high concentrations” value (Coniophora puteana; impregnation with 10 and 20% NBDA to water phase) was “strong results” and the “Corrected mass loss, Mean” value (Coniophora puteana; solution conc. 10.00 % w/w) was 0.3%. The “Mass loss, Mean” value (Coniophora puteana; solution conc. 10.00 % w/w) was −0.4%, the Corrected mass loss (Coniophora puteana; solution conc. 10.00 % w/w) was −0.4% and 0.3% and 0.9% and 0.0% and 1.1% and −0.2% and −0.8% and the Mass loss (Coniophora puteana; solution conc. 10.00 % w/w) was −0.9% and −0.2% and 0.4% and −0.5% and 0.6% and −0.7% and −1.3%. For the same compound, the “Corrected mass loss, Mean” value (Coniophora puteana; solution conc. 20.00 % w/w) was 0.0%, the “Mass loss, Mean” value (Coniophora puteana; solution conc. 20.00 % w/w) was −1.5% and the Corrected mass loss (Coniophora puteana; solution conc. 20.00 % w/w) was 0.3% and −0.1% and −0.5% and −0.8% and −0.7% and −0.6%. The Mass loss (Coniophora puteana; solution conc. 20.00 % w/w) was −0.7% and −1.1% and −1.6% and −1.8% and −1.7%.
